11 compounds from patent US11564923B2, “Compounds and pharmaceutical compositions thereof for the treatment of inflammatory disorders” (Galapagos NV, priority 2017, dated 2023) can be followed below.

pIC50: −log10 of the molar value. Where a name gives a salt, the structure may show the parent alone.

Assay [1] has as its target T1, Recombinant human JAK1 (catalytic domain, amino acids 866-1154) (Homo sapiens, UniProt P23458).
T1 construct: catalytic domain, amino acids 866-1154
The experiment in a line: JAK1 inhibition assay. It counts as biochemical. As to conditions: read-out: JAK1 potency IC50. How it is done: After 60 min at room temperature, reactions are stopped by adding 20 μL/well of detection mixture (1× detection buffer (Perkin Elmer, catalog number CR97-100), 0.5 nM Europium-anti-phosphotyrosine (PT66) (Perkin Elmer, catalog number AD0068/AD0069), 10 mM EDTA). […] Kinase activity is calculated by subtracting the ratio obtained in the presence of a positive control inhibitor (1 μM staurosporine) from the ratio obtained in the presence of vehicle. The ability of a test compound to inhibit this activity (or percentage inhibition) is determined as:
(§1) [formula] wherein Fluorescent ratio test compound=ratio RFU665/RFU615*1000 determined for sample with test compound present Fluorescent ratio control=ratio RFU665/RFU615*1000 determined for sample with positive control inhibitor Fluorescent ratio vehicle=ratio RFU665/RFU615*1000 determined in the presence of vehicle
Dose dilution series were prepared for the compounds enabling the testing of dose-response effects in the JAK1 assay and the calculation of the IC50 for the compound. Each compound is routinely tested at concentration of 20 μM followed by a 1/5 serial dilution, 10 points in a final concentration of 1% DMSO. […] The data are expressed as the average IC50 from the assays.

The target in assay [2] is T2, Recombinant human JAK2 (catalytic domain, amino acids 808-1132) (Homo sapiens, UniProt O60674).
T2 construct: catalytic domain, amino acids 808-1132
The experiment in a line: JAK2 inhibition assay. Further: 0.7 µM ATP. The class given is biochemical. As to conditions: read-out: JAK2 potency IC50. How it is done:
After 60 min at room temperature, reactions are stopped by adding 20 μL/well of detection mixture (1× detection buffer (Perkin Elmer, catalog number CR97-100) with 0.5 nM Europium-anti-phosphotyrosine (PT66) (Perkin Elmer, catalog number AD0068/AD0069) and 10 mM EDTA). […] Kinase activity is calculated by subtracting the ratio obtained in the presence of a positive control inhibitor (1 μM staurosporine) from the ratio obtained in the presence of vehicle. The ability of a test compound to inhibit this activity (or percentage inhibition) is determined as:
as §1
Dose dilution series are prepared for compound enabling the testing of dose-response effects in the JAK2 assay and the calculation of the IC50 for the compound. Each compound is routinely tested at concentration of 20 μM followed by a 1/5 serial dilution, 10 points in a final concentration of 1% DMSO. […] The data are expressed as the average IC50 from the assays.

The target of assay [3] is Recombinant human JAK3 catalytic domain (amino acids 781-1124) (Homo sapiens, UniProt P52333). The experiment in a line: JAK3 inhibition assay. It counts as biochemical. How it is done:
After 45 min at 30° C., reactions are stopped by adding 25 μL/well of 150 mM phosphoric acid. […] Plates are washed 6 times with 300 μL per well of a 75 mM phosphoric acid solution and the bottom of the plates is sealed. […] Kinase activity is calculated by subtracting counts per min (cpm) obtained in the presence of a positive control inhibitor (10 μM staurosporine) from cpm obtained in the presence of vehicle. The ability of a test compound to inhibit this activity (or percentage inhibition) is determined as: […]
cpm test compound=cpm determined for sample with test compound present cpm control=cpm determined for sample with positive control inhibitor cpm vehicle=cpm determined in the presence of vehicle
Dose dilution series were prepared for the compounds enabling the testing of dose-response effects in the JAK3 assay and the calculation of the IC50 for each compound. Each compound is routinely tested at concentration of 20 μM followed by a 1/5 serial dilution, 10 points in a final concentration of 1% DMSO.

Assay [4] addresses T3, Recombinant human TYK2 catalytic domain (amino acids 871-1187) (Homo sapiens, UniProt P29597).
T3 construct: catalytic domain (amino acids 871-1187)
T3 sequence (P29597 871-1187): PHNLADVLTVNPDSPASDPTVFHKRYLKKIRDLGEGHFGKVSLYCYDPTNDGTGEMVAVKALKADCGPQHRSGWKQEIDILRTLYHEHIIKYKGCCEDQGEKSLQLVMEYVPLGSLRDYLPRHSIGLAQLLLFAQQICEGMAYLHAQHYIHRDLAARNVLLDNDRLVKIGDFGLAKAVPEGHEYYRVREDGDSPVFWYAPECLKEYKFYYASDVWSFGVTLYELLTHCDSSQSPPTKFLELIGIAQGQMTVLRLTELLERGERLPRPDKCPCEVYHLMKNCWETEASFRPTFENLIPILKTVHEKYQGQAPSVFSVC
The experiment in a line: TYK2 radioactive assay polyGT substrate. Further: 0.1 µM ATP. The class given is biochemical. The method in brief: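 Reaction at 30° C. for 120 min, ended with 150 mM phosphoric acid, washed, counted; percent inhibition scaled between vehicle and 10 μM staurosporine cpm.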

Assay [5] concerns IFNα activation of STAT1 in PBMC. The experiment in a line: IFNα activation of STAT1 in PBMC. It counts as cell-based. Conditions: Homo sapiens; IFNα activation of STAT1 in PBMC; average IC50; read-out: IFNα signaling inhibitory potency IC50. The method, then: After these 2 wash steps the cell pellet is dissolved in ammonium chloride buffer (1.5 M NH4Cl, 100 mM NaHCO3 and 10 mM Na2.EDTA) for lysis of the red blood cells.
PBMC are treated with test compound for 30 min at 37° C. 5% CO2. […] After 30 min of test compound/vehicle pre-treatment, PBMC are stimulated for 30 min at 37° C. 5% CO2 with recombinant human IFNα (PeproTech, catalog number 300-02A) at a final concentration of 5 ng/mL by addition of 20 μL (10× concentrated) cytokine trigger to obtain a final volume of 200 μL per well.
After 30 min of cytokine stimulation, 200 μL of cell suspension is transferred to a 96-well V-bottom plate, centrifugated for 5 min at 1000 rpm to pellet cells, followed by removal of supernatant.
(§2) The percentage inhibition is calculated as: […]
RCLU(vehicle control): Relative Chemiluminescent signal determined in presence of vehicle and trigger
RCLU(test compound): Relative Chemiluminescent signal determined in presence of test compounds and trigger
RCLU(positive control): Relative Chemiluminescent signal determined in presence of positive control and trigger
PIN values are plotted for compounds tested in dose-response and average IC50 values are derived using GraphiPad Prism Software applying non-linear regression (sigmoidal) curve fitting.

Assay [6] deals with IL-12 activation of STAT4 in NK-92 cells. Nature of the assay: IL-12 activation of STAT4 in NK-92 cells using AphaLISA SureFire technology. It counts as cell-based. As to conditions: Homo sapiens, NK92; IL-12 activation of STAT4 in NK-92 cells, AlphaLISA SureFire; average IC50; read-out: IL12 pSTAT4 IC50. The method, then: IL-2 is added freshly to the medium with each medium refreshment step. Cells are cultured in a humidified incubator at 37° C. 5% CO2.
A subcultured fraction of NK-92 cells is washed once in culture medium without rhIL-2 the day before the experiment and incubated overnight in a culture flask.
5% CO2. […] NK-92 cells are triggered with rhIL-12 for 30 min at 37° C. 5% CO2.
After 30 min of cytokine stimulation the cells are lysed by addition of 15 μL 5× lysis buffer (supplemented with the AlphaLISA kit). After 10 minutes, plates are frozen at −80° C. overnight and the next day the levels of phospho-STAT4 are quantified using the AlphaLISA SureFire ULTRA p-STAT4 (Tyr693) (Perkin Elmer, Catalogue number ALSU-PST4-A10K) according to the manufacturers instructions. AlphaLISA signal (relative light units) is measured using an Envision (Perkin Elmer).
as §2
RLU(trigger/veh): Relative lumescent signal determined in presence of vehicle and trigger
RLU(test compound): Relative luminescent signal determined in presence of test compounds and trigger
PIN values are plotted for compounds tested in dose-response and IC50 values are derived using GraphPad Prism Software applying non-linear regression (sigmoidal) curve fitting. The data are expressed as the average IC50 from different experiments.
A general note: Bead proximity is the source of the signal in Alpha formats.

T1 sequence (P23458 866-1154): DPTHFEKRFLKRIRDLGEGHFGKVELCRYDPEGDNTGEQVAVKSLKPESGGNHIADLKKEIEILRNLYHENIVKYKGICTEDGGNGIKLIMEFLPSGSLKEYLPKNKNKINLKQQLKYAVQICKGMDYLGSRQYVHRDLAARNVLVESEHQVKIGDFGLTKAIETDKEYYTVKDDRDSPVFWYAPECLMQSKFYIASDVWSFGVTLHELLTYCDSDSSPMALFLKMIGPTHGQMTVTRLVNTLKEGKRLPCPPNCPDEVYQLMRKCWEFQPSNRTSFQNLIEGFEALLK
Chain of Recombinant human JAK3 catalytic domain (amino acids 781-1124) (P52333 781-1124): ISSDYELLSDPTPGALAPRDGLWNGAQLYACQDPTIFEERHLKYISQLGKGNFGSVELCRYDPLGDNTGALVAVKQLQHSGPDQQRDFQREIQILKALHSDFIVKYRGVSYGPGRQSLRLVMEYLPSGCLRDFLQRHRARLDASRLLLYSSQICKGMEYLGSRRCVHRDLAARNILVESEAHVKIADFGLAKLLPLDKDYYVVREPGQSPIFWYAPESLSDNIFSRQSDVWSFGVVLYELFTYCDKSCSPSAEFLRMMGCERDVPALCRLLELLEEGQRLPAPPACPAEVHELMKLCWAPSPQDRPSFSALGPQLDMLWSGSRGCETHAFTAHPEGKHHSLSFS
T2 sequence (O60674 808-1132): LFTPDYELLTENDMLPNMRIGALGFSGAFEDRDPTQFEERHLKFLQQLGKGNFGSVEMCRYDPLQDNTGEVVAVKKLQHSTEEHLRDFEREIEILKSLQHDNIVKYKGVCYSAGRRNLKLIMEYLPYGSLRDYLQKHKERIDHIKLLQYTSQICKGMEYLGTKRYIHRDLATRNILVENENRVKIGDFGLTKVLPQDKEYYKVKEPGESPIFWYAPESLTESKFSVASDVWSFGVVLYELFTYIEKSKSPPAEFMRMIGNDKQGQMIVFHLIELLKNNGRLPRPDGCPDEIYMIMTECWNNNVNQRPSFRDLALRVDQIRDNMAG

For the compound `CN(c1cc(Nc2cc(N)ncn2)c2ncn(C)c2n1)[C@@H]1CCC[C@@H](C#N)C1` (racemic) [Compound 13, (±)-(1R,3R)-3-{[7-(6-Amino-pyrimidin-4-ylamino)-3-methyl-3H-imidazo[4,5-b]pyridin-5-yl]-methyl-amino}-cyclohexanecarbonitrile], the pIC50 (in general, the IC50 on a negative log10 scale, so that one unit is a factor of ten) in assay [1] was 7.61; in assay [2] it was 8.50; in assay [3], 8.02; in assay [4], 8.72.

In the case of `Cc1cc(C#N)ncc1Oc1cc(Nc2ccc(C(=O)NC3CCC(O)C3)cn2)c2ncn(C)c2n1` (racemic) [Compound 139, 6-[[5-(6-cyano-4-methylpyridin-3-yl)oxy-3-methylimidazo[4,5-b]pyridin-7-yl]amino]-N-[rac-(1R,3R)-3-hydroxycyclopentyl]pyridine-3-carboxamide], the pIC50 in assay [1] was 7.47; in assay [2], 7.63; in assay [3], 6.17; in assay [4], 8.25.

Turning to `Cc1cc(C#N)ncc1N(CCCO)c1cc(Nc2cc(N)ncn2)c2ncn(C)c2n1` [Compound 5, 5-[[7-(6-Amino-pyrimidin-4-ylamino)-3-methyl-3H-imidazo[4,5-b]pyridin-5-yl]-(3-hydroxy-propyl)-amino]-4-methyl-pyridine-2-carbonitrile], the pIC50 in assay [1] was 7.63; in assay [2], 8.16; in assay [3], 6.48; in assay [4] it was 9.02.

On to `C[C@H](C1CC1)N(C)c1cc(Nc2cc(N)ncn2)c2ncn(C)c2n1` [Compound 16, N7-(6-aminopyrimidin-4-yl)-N5-[(1R)-1-cyclopropylethyl]-N5,3-dimethyl-imidazo[4,5-b]pyridine-5,7-diamine], for which the pIC50 was 7.15 in assay [1], 7.60 in assay [2], 6.66 in assay [3] and 7.87 in assay [4].

For `Cc1cc(C#N)ncc1Oc1cc(Nc2ccc(C(=O)NCC(C)O)nc2)c2ncn(C)c2n1` (centres unmarked) [Compound 30, 5-[5-(6-Cyano-4-methyl-pyridin-3-yloxy)-3-methyl-3H-imidazo[4,5-b]pyridin-7-ylamino]-pyridine-2-carboxylic acid (2-hydroxy-propyl)-amide], the pIC50 in assay [1] was 6.40; in assay [2], 6.11; in assay [4], 7.25.

Consider `COCCCNc1cc(Nc2cc(Oc3cnc(C#N)cc3C)nc3c2ncn3C)ncn1` [Compound 32, 5-{7-[6-(3-Methoxy-propylamino)-pyrimidin-4-ylamino]-3-methyl-3H-imidazo[4,5-b]pyridin-5-yloxy}-4-methyl-pyridine-2-carbonitrile], for which the pIC50 was 6.93 in assay [1], 7.58 in assay [2], 6.22 in assay [3] and 8.22 in assay [4].

Turning to `Cc1cc(C#N)ncc1Oc1cc(Nc2cc(NCCCO)ncn2)c2ncn(C)c2n1` [Compound 34, 5-{7-[6-(3-Hydroxy-propylamino)-pyrimidin-4-ylamino]-3-methyl-3H-imidazo[4,5-b]pyridin-5-yloxy}-4-methyl-pyridine-2-carbonitrile], the pIC50 was 7.00 in assay [1], 7.63 in assay [2], 5.96 in assay [3] and 8.26 in assay [4].

In the case of `Cc1cc(C#N)ncc1Oc1cc(Nc2cc(NCC3COCCO3)ncn2)c2ncn(C)c2n1` (centres unmarked) [Compound 35, 5-(7-{6-[([1,4]Dioxan-2-ylmethyl)-amino]-pyrimidin-4-ylamino}-3-methyl-3H-imidazo[4,5-b]pyridin-5-yloxy)-4-methyl-pyridine-2-carbonitrile], the pIC50 in assay [1] is 7.28; in assay [2] it was 7.69; in assay [3] it was 6.34; in assay [4], 8.64.

Regarding `COC(C)CCNc1cc(Nc2cc(Oc3cnc(C#N)cc3C)nc3c2ncn3C)ncn1` (centres unmarked) [Compound 37, 5-{7-[6-(3-Methoxy-butylamino)-pyrimidin-4-ylamino]-3-methyl-3H-imidazo[4,5-b]pyridin-5-yloxy}-4-methyl-pyridine-2-carbonitrile], the pIC50 in assay [1] is 7.07; in assay [2] it was 7.70; in assay [3] it was 6.36; in assay [4] it was 8.44.

As to `CCNC(=O)c1cnc(Nc2cc(Oc3cnc(C#N)cc3C)nc3c2ncn3C)cc1C` [Compound 64, 6-[[5-[(6-cyano-4-methyl-3-pyridyl)oxy]-3-methyl-imidazo[4,5-b]pyridin-7-yl]amino]-N-ethyl-4-methyl-pyridine-3-carboxamide], the pIC50 in assay [1] was 6.46; in assay [2], 6.67; in assay [3], 5.49; in assay [4], 7.29.

On to `Cc1cc(C#N)ncc1Oc1cc(Nc2ccc(CN(C)CCN(C)C)cn2)c2ncn(C)c2n1` [Compound 83, 5-[7-[[5-[[2-(dimethylamino)ethyl-methylamino]methyl]pyridin-2-yl]amino]-3-methylimidazo[4,5-b]pyridin-5-yl]oxy-4-methylpyridine-2-carbonitrile formate salt], for which the negative-log IC50 (pIC50) was 6.56 in assay [1]; 7.57 in assay [2]; 7.79 in assay [4]; 6.86 in assay [5]; 6.01 in assay [6].
